Patent US5563125A, “5'-deoxy-5'-(substituted)alkylthioribose compounds and their pharmaceutical compositions” (priority 1992, dated 1996)

Legend:
PANuT (human melanoma) = experiment: In vitro evaluation, PANuT; type: cell-based; details: medium B, 72 hours
Procedure: (§1) In vitro evaluations of the compound 5'-deoxy-5'-(monofluoroethylthio) adenosine (MFETA) were performed using the materials and conditions described in Tables 9 and 10.
(§2) ^(a) Basal medium = RPMI 1640 + 20 mM HEPES + 2 mM Lglutamine
(§3) B = 5% FCS + 5% NuSerum IV

HO (human melanoma) = experiment: In vitro evaluation, HO; type: cell-based; details: medium B, 72 hours
Procedure: as §1, §2, §3

[1] = test system: A549 (human non-small cell lung carcinoma); experiment: In vitro evaluation, A549; type: cell-based; details: A549, medium B, 72 hours, solvent DMSO
Procedure: as §1
(§4) (a) Basal medium + RPMI 1640 + 20 mM HEPES;
(§5) B--5% NuSerum IV + 5% FCS,
(§6) *Incubation or exposure time is determined by the doubling time of the
(§7) cell line such that each is exposed to the compound for 3-4 cell

L1210 leukemic cells = experiment: Antitumor effects in L1210 leukemic mice; type: in vivo, DBA/2N mice
Procedure: The antitumor effects of MFETA were evaluated in DBA/2N mice (Charles River) who received i.p. transplants of 10^6 L1210 leukemic cells or 10^6 L5178Y leukemic cells on day 0 according to protocols described previously by Bernacki et al., Cancer Res. 47, 799, 1987. The increase in life span (% ILS) of treated animals relative to untreated, tumor-bearing animals was used as the measure of their therapeutic effectiveness at specified dose regimens.
^a MFETA was administered i.p. on days 1, 2, 3, 4, 5 following i.p.
implantation of 10^6 tumor cells on day 0.
^b % ILS is the percentage of increase in life span.

[2] = target: T1, Mouse Liver MTA Phosphorylase (Mus musculus, UniProt Q9CQ65); experiment: Mouse liver MTA phosphorylase substrate/inhibitor assay; type: biochemical
T1 sequence (Q9CQ65 1-283): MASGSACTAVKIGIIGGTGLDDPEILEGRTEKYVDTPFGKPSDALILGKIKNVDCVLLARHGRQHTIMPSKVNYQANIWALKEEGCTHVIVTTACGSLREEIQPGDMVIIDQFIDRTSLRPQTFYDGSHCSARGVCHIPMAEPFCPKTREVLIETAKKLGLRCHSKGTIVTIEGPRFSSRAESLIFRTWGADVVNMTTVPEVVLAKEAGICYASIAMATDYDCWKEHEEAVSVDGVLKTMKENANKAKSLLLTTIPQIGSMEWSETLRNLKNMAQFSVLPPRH
Procedure: ^a MTA phosphorylase activity was assayed as described in Sufrin et

[3] = test system: A121 (human ovarian carcinoma); experiment: In vitro evaluation, A121; type: cell-based; details: A121, medium B, 72 hours, solvent DMSO
Procedure: as §1, §4, §5, §6, §7

[4] = test system: PSN-1 (human pancreatic carcinoma); experiment: In vitro evaluation, PSN-1; type: cell-based; details: PSN1, PSN-1, medium C, 72 hours, solvent DMSO
Procedure: as §1, §4, §5, §6, §7

[5] = test system: HT-29 (human colon carcinoma); experiment: In vitro evaluation, HT-29; type: cell-based; details: HT-29, medium B, 96 hours, solvent DMSO
Procedure: as §1, §4, §5, §6, §7

[6] = test system: CCRF-CEM cells (MTA phosphorylase-deficient); experiment: Growth inhibition of CCRF-CEM cells; type: cell-based, human; details: Homo sapiens, 96 h
Procedure: (§8) L1210, L5178Y and MOLT-4 cell lines were grown in RPMI 1640 and 10% Nu Serum (Collaborative Research Inc., Lexington, Mass.) and CCRF-CEM cells were grown in 10% Horse Serum (Gibco Laboratories, Grand Island, N.Y.) and maintained as previously described for suspension cultures by Pera et al. in Cancer Res. 46, 1148, 1986. Cell cultures (0.3×10^5 cells/ml) were treated with each compound at 0.1 to 1000 μM to determine the concentration that inhibited growth by 50% (IC50) at 48 hr for the L1210 and L5178Y cells and at 96 hr for the CCRF-CEM and MOLT-4 cells. The incubation times allowed approximately 4 cell doublings in each cell line. All compounds were freshly prepared prior to treatment by dissolving in DMSO and diluting in serum-free media. Cells were counted by electron particle counting (Model XF' Coulter Counter; Coulter Electronics, Hialeah, Fla.).
(§9) For each compound, the concentrations required to inhibit cell growth by 50% (IC50 values) are shown in Table 7 for two murine leukemic cell lines, L1210 and L5178Y [MTA phosphorylase-deficient and MTA phosphorylase-containing, respectively] and two human leukemic cell lines, CCRF-CEM and MOLT-4 [MTA phosphorylase-deficient and MTA phosphorylase-containing, respectively]. ETA, MFETA, HETA and PTA had lower IC50 values in the L5178Y cells than in the L1210 cells. […] This differential is consistent with the possibility that, in L5178Y cells, MFETA is cleaved by MTA phosphorylase to the growth inhibitory metabolite, 5-monofluoroethylthioribose-1-phosphate (MFETR-1-P).

STO-1 (human melanoma) = experiment: In vitro evaluation, STO-1; type: cell-based; details: STO-1, medium B, 72 hours
Procedure: as §1, §2, §3

[7] = test system: T. b. brucei procyclic trypanosomes (Lab 110 EATRO strain); experiment: In vitro antitrypanosomal activity, procyclic trypanosomes in T2 medium; type: cell-based, Trypanosoma brucei brucei; details: Trypanosoma brucei, 3-5 days
Procedure: The antitrypanosomal effects of HETA and other nucleosides were examined in the Lab 110 EATRO strain of T. b. brucei in culture.
Cells were cultured as described in Bacchi et al. Exp. Parasitol. 68, 392, 1989. Cells were then grown in the presence of the compounds for 3-5 days. Drugs were filtered, sterilized and added aseptically. Control cells achieved a maximum density of 1.5-3.5×10^7 /ml. Hemocytometer counts were made daily and the results were expressed as a percent of control growth. IC50 plots were obtained by graphing log (drug) vs. percent growth inhibition.
Trypanocidal Activity of MTA and MTR Analogs
against T. b. brucei procyclic trypanosomes in T2 medium.

[8] = test system: L1210 cells (MTA phosphorylase-deficient); experiment: Growth inhibition of L1210 cells; type: cell-based, mouse; details: Mus musculus, L1210, 48 h
Procedure: as §8, §9

Compound: Nc1ncnc2c1ncn2[C@@H]1O[C@H](CSCCF)[C@@H](O)[C@H]1O [MFETA, 5'-deoxy-5'-(monofluoroethylthio)adenosine]
- IC50 (PANuT (human melanoma)): 160 ± 8.1 µM
- IC50 (HO (human melanoma)): 333 ± 5.9 µM
- IC50 [1]: 346 µM
- % ILS (percentage of increase in life span) (L1210 leukemic cells; L1210, 10 mg/kg i.p. days 1-5): 14%
- Mean Death Weight (L1210 leukemic cells; L1210, 10 mg/kg i.p. days 1-5): 23.7 g
- Survival Mean ± SD (L1210 leukemic cells; L1210, 10 mg/kg i.p. days 1-5): 7.2 ± 0.5 days
- Survival Median (L1210 leukemic cells; L1210, 10 mg/kg i.p. days 1-5): 8 days
- Survival Range (L1210 leukemic cells; L1210, 10 mg/kg i.p. days 1-5): 6 to 8 days
- % ILS (percentage of increase in life span) (L1210 leukemic cells; L1210, 50 mg/kg i.p. days 1-5): 14%
- Mean Death Weight (L1210 leukemic cells; L1210, 50 mg/kg i.p. days 1-5): 24.5 g
- Survival Mean ± SD (L1210 leukemic cells; L1210, 50 mg/kg i.p. days 1-5): 7.8 ± 0.2 days
- Survival Median (L1210 leukemic cells; L1210, 50 mg/kg i.p. days 1-5): 8 days
- Survival Range (L1210 leukemic cells; L1210, 50 mg/kg i.p. days 1-5): 7 to 8 days
- % ILS (percentage of increase in life span) (L1210 leukemic cells; L1210, 100 mg/kg i.p. days 1-5): 14%
- Mean Death Weight (L1210 leukemic cells; L1210, 100 mg/kg i.p. days 1-5): 22.8 g
- Survival Mean ± SD (L1210 leukemic cells; L1210, 100 mg/kg i.p. days 1-5): 7.9 ± 0.2 days
- Survival Median (L1210 leukemic cells; L1210, 100 mg/kg i.p. days 1-5): 8 days
- Survival Range (L1210 leukemic cells; L1210, 100 mg/kg i.p. days 1-5): 7 to 9 days
- % ILS (percentage of increase in life span) (L1210 leukemic cells; L1210, 200 mg/kg i.p. days 1-5): 28%
- Mean Death Weight (L1210 leukemic cells; L1210, 200 mg/kg i.p. days 1-5): 18.4 g
- Survival Mean ± SD (L1210 leukemic cells; L1210, 200 mg/kg i.p. days 1-5): 8.8 ± 0.8 days
- Survival Median (L1210 leukemic cells; L1210, 200 mg/kg i.p. days 1-5): 9 days
- Survival Range (L1210 leukemic cells; L1210, 200 mg/kg i.p. days 1-5): 6 to 11 days
- % ILS (percentage of increase in life span) (L1210 leukemic cells; L1210, 300 mg/kg i.p. days 1-5): -72%
- Mean Death Weight (L1210 leukemic cells; L1210, 300 mg/kg i.p. days 1-5): 18.8 g
- Survival Mean ± SD (L1210 leukemic cells; L1210, 300 mg/kg i.p. days 1-5): 2.2 ± 0.2 days
- Survival Median (L1210 leukemic cells; L1210, 300 mg/kg i.p. days 1-5): 2 days
- Survival Range (L1210 leukemic cells; L1210, 300 mg/kg i.p. days 1-5): 2 to 3 days
- Ki ([2]; mouse liver MTA phosphorylase, read-out: K1): 3.1 µM
- Substrate (% Control) ([2]; substrate activity relative to MTA): 64 % Control
- IC50 [3]: 269 µM
- IC50 [4]: 175 µM
- IC50 [5]: 259 µM
- IC50 [6]: 75 ± 20 µM
- IC50 (STO-1 (human melanoma)): 296 ± 9.9 µM
- IC50 [7]: 5 µM
- IC50 [8]: 150 ± 50 µM
